Test results: publication PMC7561186, “Rational design of balanced dual-targeting antibiotics with limited resistance” (PLoS Biology, 2020)
In brackets after ≈: the same amount, converted by molar mass. Read-outs that look alike come from different tables or passages of the source.

What was measured:
[1] = molecular target: T1, S. aureus topoisomerase IV (Staphylococcus aureus, UniProt P0C1S7); assay: S. aureus topoisomerase IV gel-based assay; format: biochemical; conditions: quadruplicates
T1 construct: purchased Inspiralis Ltd., Norwich, UK
T1 sequence (P0C1S7 whole entry): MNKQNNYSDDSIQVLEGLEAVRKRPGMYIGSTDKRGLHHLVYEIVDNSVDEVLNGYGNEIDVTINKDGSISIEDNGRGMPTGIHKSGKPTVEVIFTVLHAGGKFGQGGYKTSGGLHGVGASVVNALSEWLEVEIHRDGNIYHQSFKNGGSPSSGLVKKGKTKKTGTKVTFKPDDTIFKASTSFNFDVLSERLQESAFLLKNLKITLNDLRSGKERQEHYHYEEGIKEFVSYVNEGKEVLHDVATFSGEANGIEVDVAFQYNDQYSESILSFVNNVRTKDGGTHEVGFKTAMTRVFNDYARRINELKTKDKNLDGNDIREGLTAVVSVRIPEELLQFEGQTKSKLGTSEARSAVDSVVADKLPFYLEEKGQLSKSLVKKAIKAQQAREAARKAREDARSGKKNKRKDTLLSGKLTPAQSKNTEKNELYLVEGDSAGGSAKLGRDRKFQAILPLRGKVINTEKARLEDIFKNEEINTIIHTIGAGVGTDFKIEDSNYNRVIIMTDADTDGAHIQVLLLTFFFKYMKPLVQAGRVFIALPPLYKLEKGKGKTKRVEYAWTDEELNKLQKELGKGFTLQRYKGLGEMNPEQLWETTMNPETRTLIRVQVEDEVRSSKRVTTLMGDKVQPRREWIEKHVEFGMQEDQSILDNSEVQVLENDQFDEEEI
T1 sequence (P0C1U9 whole entry, further chain): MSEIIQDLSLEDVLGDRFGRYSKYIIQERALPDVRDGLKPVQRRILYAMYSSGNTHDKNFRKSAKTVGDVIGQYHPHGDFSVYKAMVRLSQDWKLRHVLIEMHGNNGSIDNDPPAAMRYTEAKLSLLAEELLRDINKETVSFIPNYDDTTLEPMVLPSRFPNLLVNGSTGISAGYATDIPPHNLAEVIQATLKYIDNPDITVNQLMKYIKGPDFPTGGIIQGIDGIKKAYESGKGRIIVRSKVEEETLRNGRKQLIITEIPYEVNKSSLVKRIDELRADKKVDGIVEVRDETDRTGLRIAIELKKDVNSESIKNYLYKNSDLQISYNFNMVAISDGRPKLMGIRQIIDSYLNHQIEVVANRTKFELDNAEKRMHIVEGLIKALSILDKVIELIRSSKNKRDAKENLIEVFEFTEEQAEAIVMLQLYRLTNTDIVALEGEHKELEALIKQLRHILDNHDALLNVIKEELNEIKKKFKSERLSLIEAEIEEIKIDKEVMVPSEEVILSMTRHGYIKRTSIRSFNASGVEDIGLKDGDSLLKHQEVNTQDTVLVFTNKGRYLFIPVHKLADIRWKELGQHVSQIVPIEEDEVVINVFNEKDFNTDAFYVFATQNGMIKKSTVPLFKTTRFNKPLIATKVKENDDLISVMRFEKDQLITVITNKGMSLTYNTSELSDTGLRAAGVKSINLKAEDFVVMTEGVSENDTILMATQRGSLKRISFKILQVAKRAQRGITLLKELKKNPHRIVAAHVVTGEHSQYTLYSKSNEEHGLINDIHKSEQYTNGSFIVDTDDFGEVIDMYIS

[2] = test system: S. aureus clinical isolates; assay: microbe, parasite or virus in culture; format: cell-based

`Cc1[nH]c(C(=O)Nc2nc3ccc(C(=O)O)cc3s2)c(Cl)c1Cl` [ULD1] showed an IC50 [1] of 9.3 ± 2.2 nM, an MIC ([2]; S. aureus ATCC 29213, MSSA / VSSA, test date 2018-10-25 (three repeat lines)) of 1 µg/mL (≈ 2.7 µM) and an MIC ([2]; Staphylococcus aureus, ATCC 29213 / MSSA, S. aureus ATCC 29213, MSSA / VSSA, test date 2018-10-25 (three repeat lines), read-out: MIC) of 0.5 µg/mL (≈ 1.35 µM). For the same molecule, the MIC ([2]; Staphylococcus aureus, ATCC 29213 / MSSA, S. aureus ATCC 29213, MSSA / VSSA, test date 2018-11-07, read-out: MIC) was 0.25 µg/mL (≈ 0.675 µM), the MIC ([2]; Staphylococcus aureus, MRSA / NRS 3 / VISA, S. aureus IHMA 1308243, NRS3, MRSA / VISA, read-out: MIC) was 1 µg/mL (≈ 2.7 µM) and the MIC ([2]; Staphylococcus aureus, MRSA / NRS 4 / VISA, S. aureus IHMA 649380, NRS4, MRSA / VISA, read-out: MIC) was 0.5 µg/mL (≈ 1.35 µM). For the same molecule, the MIC ([2]; Staphylococcus aureus, MRSA / NRS 18 / VISA, S. aureus IHMA 649386, NRS18, MRSA / VISA, read-out: MIC) was 0.5 µg/mL (≈ 1.35 µM), the MIC ([2]; Staphylococcus aureus, MRSA / NRS 19 / VISA, S. aureus IHMA 649387, NRS19, MRSA / VISA, read-out: MIC) was 0.5 µg/mL (≈ 1.35 µM) and the MIC ([2]; Staphylococcus aureus, MRSA / NRS 21 / VISA, S. aureus IHMA 649388, NRS21, MRSA / VISA, read-out: MIC) was 1 µg/mL (≈ 2.7 µM). The MIC ([2]; Staphylococcus aureus, MRSA / NRS 22 / USA600 / VISA, S. aureus IHMA 649389, NRS22, MRSA / VISA, USA600, read-out: MIC) was 0.5 µg/mL (≈ 1.35 µM), the MIC ([2]; Staphylococcus aureus, MRSA / NRS 23 / VISA, S. aureus IHMA 649390, NRS23, MRSA / VISA, read-out: MIC) was 0.5 µg/mL (≈ 1.35 µM) and the MIC ([2]; Staphylococcus aureus, MRSA / NRS 24 / VISA, S. aureus IHMA 649391, NRS24, MRSA / VISA, read-out: MIC) was 0.5 µg/mL (≈ 1.35 µM). For the same molecule, the MIC ([2]; Staphylococcus aureus, MRSA / NRS 26, S. aureus IHMA 649392, NRS26, MRSA / VSSA, read-out: MIC) was 0.5 µg/mL (≈ 1.35 µM), the MIC ([2]; Staphylococcus aureus, MRSA / NRS 27 / VISA, S. aureus IHMA 1308248, NRS27, MRSA / VISA, read-out: MIC) was 1 µg/mL (≈ 2.7 µM) and the MIC ([2]; Staphylococcus aureus, MRSA / NRS 29 / VISA, S. aureus IHMA 1308250, NRS29, MRSA / VISA, read-out: MIC) was 0.5 µg/mL (≈ 1.35 µM). It also gave an MIC ([2]; Staphylococcus aureus, MRSA / NRS 37 / VISA, S. aureus IHMA 1308251, NRS37, MRSA / VISA, read-out: MIC) of 0.5 µg/mL (≈ 1.35 µM), an MIC ([2]; Staphylococcus aureus, MRSA / NRS 54, S. aureus IHMA 1308253, NRS54, MRSA / VSSA* (*Expected VAN intermediate, confirmed VAN susceptible twice), test date 2018-11-07, read-out: MIC) of 0.25 µg/mL (≈ 0.675 µM) and an MIC ([2]; Staphylococcus aureus, MRSA / NRS 56 / VISA, S. aureus IHMA 1308254, NRS56, MRSA / VISA, read-out: MIC) of 0.5 µg/mL (≈ 1.35 µM). For the same molecule, the MIC ([2]; Staphylococcus aureus, MRSA / USA100 / VRSA, S. aureus IHMA 672230, VRS1, MRSA / VRSA, USA100, read-out: MIC) was 0.5 µg/mL (≈ 1.35 µM), the MIC ([2]; Staphylococcus aureus, MRSA / USA100 / VRSA, S. aureus IHMA 672231, VRS2, MRSA / VRSA, USA100, read-out: MIC) was 0.5 µg/mL (≈ 1.35 µM) and the MIC ([2]; Staphylococcus aureus, MRSA / USA100 / VRSA, S. aureus IHMA 672234, VRS4, MRSA / VRSA, USA100, read-out: MIC) was 0.5 µg/mL (≈ 1.35 µM). For the same molecule, the MIC ([2]; Staphylococcus aureus, MRSA / USA100 / VRSA, S. aureus IHMA 672235, VRS5, MRSA / VRSA, USA100, read-out: MIC) was 1 µg/mL (≈ 2.7 µM), the MIC ([2]; Staphylococcus aureus, MRSA / USA100 / VRSA, S. aureus IHMA 672237, VRS7, MRSA / VRSA, USA100, read-out: MIC) was 0.5 µg/mL (≈ 1.35 µM) and the MIC ([2]; Staphylococcus aureus, MRSA / USA100 / VRSA, S. aureus IHMA 672238, VRS8, MRSA / VRSA, USA100, read-out: MIC) was 0.5 µg/mL (≈ 1.35 µM). For the same molecule, the MIC ([2]; Staphylococcus aureus, MRSA / USA100 / VRSA, S. aureus IHMA 672239, VRS9, MRSA / VRSA, USA100, read-out: MIC) was 0.5 µg/mL (≈ 1.35 µM), the MIC ([2]; Staphylococcus aureus, MRSA / USA100 / VRSA, S. aureus IHMA 1308256, VRS10, MRSA / VRSA, USA100, read-out: MIC) was 1 µg/mL (≈ 2.7 µM) and the MIC ([2]; Staphylococcus aureus, MRSA / USA100 / VRSA, S. aureus IHMA 1308258, VRS11b, MRSA / VRSA, USA100, read-out: MIC) was 0.5 µg/mL (≈ 1.35 µM). The MIC ([2]; Staphylococcus aureus, MRSA / USA800 / VRSA, S. aureus IHMA 672233, VRS3b, MRSA / VRSA, USA800, read-out: MIC) was 0.25 µg/mL (≈ 0.675 µM), the MIC ([2]; Staphylococcus aureus, MRSA / VISA / VRSA, all isolates of the panel (MRSA, VISA, VRSA), read-out: MIC against all tested S. aureus clinical isolates) was at most 1 µg/mL and the MIC ([2]; Staphylococcus aureus, MRSA, S. aureus IHMA 1569509, MRSA / VSSA, read-out: MIC) was 0.25 µg/mL (≈ 0.675 µM). For the same molecule, the MIC ([2]; Staphylococcus aureus, MRSA, S. aureus IHMA 1575268, MRSA / VSSA, read-out: MIC) was 1 µg/mL (≈ 2.7 µM), the MIC ([2]; Staphylococcus aureus, MRSA, S. aureus IHMA 1575629, MRSA / VSSA, read-out: MIC) was 0.5 µg/mL (≈ 1.35 µM) and the MIC ([2]; Staphylococcus aureus, MRSA, S. aureus IHMA 1577820, MRSA / VSSA, read-out: MIC) was 1 µg/mL (≈ 2.7 µM). For the same molecule, the MIC ([2]; Staphylococcus aureus, MRSA, S. aureus IHMA 1580300, MRSA / VSSA, read-out: MIC) was 0.5 µg/mL (≈ 1.35 µM), the MIC ([2]; Staphylococcus aureus, MRSA, S. aureus IHMA 1580940, MRSA / VSSA, read-out: MIC) was 0.5 µg/mL (≈ 1.35 µM) and the MIC ([2]; Staphylococcus aureus, MRSA, S. aureus IHMA 1582100, MRSA / VSSA, read-out: MIC) was 0.5 µg/mL (≈ 1.35 µM). The MIC ([2]; Staphylococcus aureus, MRSA, S. aureus IHMA 1583795, MRSA / VSSA, read-out: MIC) was 1 µg/mL (≈ 2.7 µM), the MIC ([2]; Staphylococcus aureus, MRSA, S. aureus IHMA 1584223, MRSA / VSSA, read-out: MIC) was 1 µg/mL (≈ 2.7 µM) and the MIC ([2]; Staphylococcus aureus, MRSA, S. aureus IHMA 1585316, MRSA / VSSA, read-out: MIC) was 0.25 µg/mL (≈ 0.675 µM). The MIC ([2]; Staphylococcus aureus, MRSA, S. aureus IHMA 1586780, MRSA / VSSA, read-out: MIC) was 0.5 µg/mL (≈ 1.35 µM), the MIC ([2]; Staphylococcus aureus, MRSA, S. aureus IHMA 1587322, MRSA / VSSA, read-out: MIC) was 0.5 µg/mL (≈ 1.35 µM) and the MIC ([2]; Staphylococcus aureus, MRSA, S. aureus IHMA 1588127, MRSA / VSSA, read-out: MIC) was 0.5 µg/mL (≈ 1.35 µM). For the same molecule, the MIC ([2]; Staphylococcus aureus, MRSA, S. aureus IHMA 1591462, MRSA / VSSA, read-out: MIC) was 0.25 µg/mL (≈ 0.675 µM), the MIC ([2]; Staphylococcus aureus, MRSA, S. aureus IHMA 1592755, MRSA / VSSA, read-out: MIC) was 0.5 µg/mL (≈ 1.35 µM) and the MIC ([2]; Staphylococcus aureus, MRSA, S. aureus IHMA 1592776, MRSA / VSSA, read-out: MIC) was 0.5 µg/mL (≈ 1.35 µM). For the same molecule, the MIC ([2]; Staphylococcus aureus, MRSA, S. aureus IHMA 1597106, MRSA / VSSA, read-out: MIC) was 1 µg/mL (≈ 2.7 µM), the MIC ([2]; Staphylococcus aureus, MRSA, S. aureus IHMA 1602095, MRSA / VSSA, read-out: MIC) was 0.5 µg/mL (≈ 1.35 µM) and the MIC ([2]; Staphylococcus aureus, MRSA, S. aureus IHMA 1611170, MRSA / VSSA, read-out: MIC) was 0.5 µg/mL (≈ 1.35 µM). The MIC ([2]; Staphylococcus aureus, MRSA, S. aureus IHMA 1611612, MRSA / VSSA, read-out: MIC) was 0.5 µg/mL (≈ 1.35 µM), the MIC ([2]; Staphylococcus aureus, MRSA, S. aureus IHMA 1612228, MRSA / VSSA, read-out: MIC) was 0.5 µg/mL (≈ 1.35 µM) and the MIC ([2]; Staphylococcus aureus, MRSA, S. aureus IHMA 1620441, MRSA / VSSA, read-out: MIC) was 0.5 µg/mL (≈ 1.35 µM). The MIC ([2]; Staphylococcus aureus, MRSA, S. aureus IHMA 1621638, MRSA / VSSA, read-out: MIC) was 1 µg/mL (≈ 2.7 µM), the MIC ([2]; Staphylococcus aureus, MRSA, S. aureus IHMA 1622252, MRSA / VSSA, read-out: MIC) was 1 µg/mL (≈ 2.7 µM) and the MIC ([2]; Staphylococcus aureus, MRSA, S. aureus IHMA 1622527, MRSA / VSSA, read-out: MIC) was 0.25 µg/mL (≈ 0.675 µM). It also gave an MIC ([2]; Staphylococcus aureus, MRSA, S. aureus IHMA 1666371, MRSA / VSSA, read-out: MIC) of 0.5 µg/mL (≈ 1.35 µM), an MIC ([2]; Staphylococcus aureus, MRSA, S. aureus IHMA 1695391, MRSA / VSSA, read-out: MIC) of 0.25 µg/mL (≈ 0.675 µM) and an MIC ([2]; Staphylococcus aureus, MRSA, S. aureus IHMA 1703428, MRSA / VSSA, read-out: MIC) of 1 µg/mL (≈ 2.7 µM). It also gave an MIC ([2]; Staphylococcus aureus, MRSA, S. aureus IHMA 1720350, MRSA / VSSA, read-out: MIC) of 1 µg/mL (≈ 2.7 µM) and an MIC ([2]; Staphylococcus aureus, MRSA, S. aureus IHMA 1732989, MRSA / VSSA, read-out: MIC) of 1 µg/mL (≈ 2.7 µM).
